Measured values: ChEMBL document CHEMBL4339248, “Secondary Metabolites Produced by Combined Culture of Penicillium crustosum and a Xylaria sp” (J Nat Prod, 2019)
Converted amounts (≈) assume the structure as drawn. The source made the active and inactive calls. The rule behind the calls is not given here.

Assays:
Vibrio parahaemolyticus = test: Antimicrobial activity against Vibrio parahaemolyticus by BSAC standardized disc susceptibility testing method; assay type: functional
Bacillus subtilis = test: Antimicrobial activity against Bacillus subtilis by BSAC standardized disc susceptibility testing method; assay type: functional
Mycolicibacterium phlei = test: Antimicrobial activity against Mycobacterium phlei by BSAC standardized disc susceptibility testing method; assay type: functional
L02 = test: Cytotoxicity in human L02 cells assessed as reduction in cel viability incubated for 24 or 72 hrs by SRB or MTT assay; assay type: cell-based
PC-3 = test: Cytotoxicity in human PC3 cells assessed as reduction in cel viability incubated for 24 or 72 hrs by SRB or MTT assay; assay type: functional, cell-based
Penicillium crustosum = test: Antimicrobial activity against Penicillium crustosum PRB-2 assessed as inhibition of microbial growth at 25 ug/disk by disk diffusion test; assay type: functional, organism-based
HL-60 = test: Cytotoxicity in human HL60 cells assessed as reduction in cel viability incubated for 24 or 72 hrs by SRB or MTT assay; assay type: functional, cell-based
SH-SY5Y = test: Cytotoxicity in human SH-SY5Y cells assessed as reduction in cel viability incubated for 24 or 72 hrs by SRB or MTT assay; assay type: functional, cell-based
Xylaria sp. = test: Antimicrobial activity against Xylaria sp. HDN13-249 assessed as inhibition of microbial growth at 25 ug/disk by disk diffusion test; assay type: functional
MGC-803 = test: Cytotoxicity in human MGC803 cells assessed as reduction in cel viability incubated for 24 or 72 hrs by SRB or MTT assay; assay type: functional, cell-based
Bel-7402 = test: Cytotoxicity in human Bel7402 cells assessed as reduction in cel viability incubated for 24 or 72 hrs by SRB or MTT assay; assay type: functional, cell-based
MDA-MB-231 = test: Cytotoxicity in human MDA-MB-231 cells assessed as reduction in cel viability incubated for 24 or 72 hrs by SRB or MTT assay; assay type: functional, cell-based
HeLa = test: Cytotoxicity in human HeLa cells assessed as reduction in cel viability incubated for 24 or 72 hrs by SRB or MTT assay; assay type: functional, cell-based
[1] = Cytotoxicity in human HO8910 cells assessed as reduction in cel viability incubated for 24 or 72 hrs by SRB or MTT assay; assay type: functional, cell-based; conditions: HO-8910
A549 = test: Cytotoxicity in human A549 cells assessed as reduction in cel viability incubated for 24 or 72 hrs by SRB or MTT assay; assay type: functional, cell-based
K562 = test: Cytotoxicity in human K562 cells assessed as reduction in cel viability incubated for 24 or 72 hrs by SRB or MTT assay; assay type: functional, cell-based
HCT-116 = test: Cytotoxicity in human HCT116 cells assessed as reduction in cel viability incubated for 24 or 72 hrs by SRB or MTT assay; assay type: functional, cell-based

SMILES | MIC (Vibrio parahaemolyticus) | MIC (Bacillus subtilis) | MIC (Mycolicibacterium phlei) | IC50 (L02) | IC50 (PC-3) | growth inhibition (GI) (Penicillium crustosum) | IC50 (HL-60) | IC50 (SH-SY5Y) | growth inhibition (GI) (Xylaria sp.) | IC50 (MGC-803) | IC50 (Bel-7402) | IC50 (MDA-MB-231) | IC50 (HeLa) | IC50 [1] | IC50 (A549) | IC50 (K562) | IC50 (HCT-116)
O=C(O)c1cn(C2CC2)c2cc(N3CCNCC3)c(F)cc2c1=O [CIPROFLOXACIN] | 12.5 µM (≈ 4.14 µg/mL) | 1.56 µM (≈ 0.517 µg/mL) | 1.56 µM (≈ 0.517 µg/mL) |  |  |  |  |  |  |  |  |  |  |  |  |  | 
CCCCC[C@H](O)CCCCCCCCCCCc1cc(O)cc(O)c1 | > 200 µM | > 200 µM | 25 µM (≈ 9.11 µg/mL) | > 30 µM | > 30 µM | inactive | > 30 µM | > 30 µM | inactive | > 30 µM | > 30 µM | > 30 µM | > 30 µM | > 30 µM | > 30 µM | > 30 µM | > 30 µM
CCCCC[C@@H](CCCCCCCCCCCc1cc(O)cc(O)c1C(=O)O)OS(=O)(=O)O |  |  |  | > 30 µM | > 30 µM | inactive | > 30 µM | > 30 µM | inactive | > 30 µM | > 30 µM | > 30 µM | > 30 µM | > 30 µM | > 30 µM | > 30 µM | > 30 µM
CCCCC[C@H](O)CCCCCCCCCCCc1cc(O)cc(O)c1C(=O)O | 12.5 µM (≈ 5.11 µg/mL) | > 200 µM | 6.25 µM (≈ 2.55 µg/mL) | > 30 µM | > 30 µM | inactive | > 30 µM | > 30 µM | inactive | > 30 µM | > 30 µM | > 30 µM | > 30 µM | > 30 µM | > 30 µM | > 30 µM | > 30 µM
